Data as given in PubChem BioAssay (NCI).
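Dose response: 5 concentrations. Exposure: 48 h. Format: 96-well plates. Endpoint: linear interpolation; highest concentration if not reached. The concentration for full growth arrest is given as TGI.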

Experiments:
Assay in all cases: NCI anticancer screen, dose series, 48 h
MOLT-4 leukemia = system: MOLT-4 leukemia
SF-295 CNS = system: SF-295 CNS
OVCAR-5 ovarian = system: OVCAR-5 ovarian
M14 melanoma = system: M14 melanoma
NCI/ADR-RES ovarian = system: NCI/ADR-RES ovarian
CCRF-CEM leukemia = system: CCRF-CEM leukemia
SK-MEL-5 melanoma = system: SK-MEL-5 melanoma
UO-31 renal = system: UO-31 renal
NCI-H23 lung = system: NCI-H23 lung
HCC-2998 colon = system: HCC-2998 colon
NCI-H226 lung = system: NCI-H226 lung
SR leukemia = system: SR leukemia
BT-549 breast = system: BT-549 breast
OVCAR-4 ovarian = system: OVCAR-4 ovarian
SNB-75 CNS = system: SNB-75 CNS
MDA-MB-435 = system: MDA-MB-435
UACC-62 melanoma = system: UACC-62 melanoma
KM12 colon = system: KM12 colon
HCT-15 colon = system: HCT-15 colon
HOP-92 NSCLC = system: HOP-92 NSCLC

| SMILES | TGI (MOLT-4 leukemia) | TGI (SF-295 CNS) | TGI (OVCAR-5 ovarian) | TGI (M14 melanoma) | TGI (NCI/ADR-RES ovarian) | TGI (CCRF-CEM leukemia) | TGI (SK-MEL-5 melanoma) | TGI (UO-31 renal) | TGI (NCI-H23 lung) | TGI (HCC-2998 colon) | TGI (NCI-H226 lung) | TGI (SR leukemia) | TGI (BT-549 breast) | TGI (OVCAR-4 ovarian) | TGI (SNB-75 CNS) | TGI (MDA-MB-435) | TGI (UACC-62 melanoma) | TGI (KM12 colon) | TGI (HCT-15 colon) | TGI (HOP-92 NSCLC) |
| --- | --- | --- | --- | --- | --- | --- | --- | --- | --- | --- | --- | --- | --- | --- | --- | --- | --- | --- | --- | --- |
| CN(C)S(=O)(=O)c1nc(Cl)c2[nH]cnc2n1 | > 100 µM | > 100 µM | > 100 µM | > 100 µM | > 100 µM | > 100 µM | > 100 µM | > 100 µM | > 100 µM | > 100 µM | > 100 µM | > 100 µM | > 100 µM | > 100 µM | > 100 µM | > 100 µM | > 100 µM | > 100 µM | > 100 µM | – |
| COC(=O)C(=O)C(C(=O)OC)C(=O)C(=O)Nc1c(Cl)cc([N+](=O)[O-])cc1Cl (stereo not given) | – | > 100 µM | > 100 µM | > 100 µM | > 100 µM | – | > 100 µM | > 100 µM | > 100 µM | > 100 µM | > 100 µM | – | > 100 µM | > 100 µM | > 100 µM | > 100 µM | > 100 µM | > 100 µM | > 100 µM | > 100 µM |
| O=C(NC1C/C(=N/O)c2c(Br)sc(Br)c21)C(F)(F)F (stereo not given) | > 100 µM | > 100 µM | > 100 µM | > 100 µM | 88.6 µM | 48.5 µM | 54.4 µM | 98.5 µM | > 100 µM | > 100 µM | 97.7 µM | – | > 100 µM | 43.7 µM | > 100 µM | > 100 µM | > 100 µM | > 100 µM | > 100 µM | 32.9 µM |
| O=S(=O)(/N=C(\NO)Nc1ccc(Cl)cc1)c1cc2ccccc2s1 | 77.8 µM | 41 µM | 29.5 µM | 33.3 µM | 38.7 µM | 87.5 µM | 30.1 µM | 48.7 µM | 30.5 µM | – | 33.2 µM | – | 31.6 µM | 37.9 µM | 29.8 µM | 36.9 µM | 29.3 µM | 57.2 µM | 36 µM | 38.8 µM |
| C(=C/c1nnnn1-c1ccccc1)/Nc1ccccc1 | > 100 µM | 85.3 µM | > 100 µM | 77.3 µM | 80.2 µM | > 100 µM | 27.7 µM | 65.9 µM | 79.2 µM | 97.7 µM | 61.6 µM | – | 53.9 µM | – | > 100 µM | 92.9 µM | > 100 µM | > 100 µM | 44.2 µM | 87.3 µM |
| C=C(C)CCC1C=[N+]([O-])OC(C)(C)C1(C)C (stereo not given) | > 100 µM | > 100 µM | > 100 µM | > 100 µM | > 100 µM | > 100 µM | > 100 µM | > 100 µM | – | > 100 µM | > 100 µM | > 100 µM | – | – | > 100 µM | > 100 µM | > 100 µM | > 100 µM | > 100 µM | > 100 µM |
| CN1C(=O)C23CCCC2CC1(c1ccccc1)S3 (stereo not given) | > 100 µM | > 100 µM | > 100 µM | > 100 µM | > 100 µM | – | > 100 µM | > 100 µM | > 100 µM | – | > 100 µM | > 100 µM | > 100 µM | > 100 µM | – | > 100 µM | > 100 µM | > 100 µM | > 100 µM | > 100 µM |
| CC#CCCCC1(C)CCNC1=S (stereo not given) | > 10 µM | > 10 µM | > 10 µM | > 10 µM | – | > 10 µM | – | > 10 µM | > 10 µM | > 10 µM | > 10 µM | > 10 µM | > 10 µM | > 10 µM | > 10 µM | > 10 µM | – | > 10 µM | > 10 µM | > 10 µM |
| O=C(NC1=C(Cl)C(=O)c2ccccc2C1=O)C(=O)C(C(=O)c1ccc2ccccc2c1)C1OC(=O)c2ccccc21 (stereo not given) | 14.1 µM | 14.9 µM | 27.5 µM | 18.2 µM | – | 26.9 µM | 1.96 µM | 29.4 µM | 13.4 µM | 22.7 µM | 7.09 µM | 29.4 µM | 17.3 µM | 19.8 µM | 13.6 µM | 3.33 µM | 4.31 µM | 13.7 µM | 18 µM | 10.3 µM |
| O=c1/c(=C/c2ccccn2)sc2nc3cc4c(cc3n12)OCCO4 | > 100 µM | > 100 µM | > 100 µM | > 100 µM | > 100 µM | > 100 µM | > 100 µM | > 100 µM | > 100 µM | > 100 µM | > 100 µM | – | > 100 µM | > 100 µM | > 100 µM | > 100 µM | > 100 µM | > 100 µM | > 100 µM | > 100 µM |
| NC(=S)N1N=C2c3ccccc3CCC[C@H]2[C@@H]1c1ccccc1 | 18.9 µM | 10.6 µM | 55.5 µM | 10.1 µM | 3 µM | 24.3 µM | 8.93 µM | 15.8 µM | 27.8 µM | 14 µM | 11.1 µM | > 32.9 µM | 19.7 µM | 23.2 µM | 0.9 µM | 0.326 µM | – | 18.3 µM | 26.2 µM | – |
| CC(NNC(=O)c1ccncc1)c1cccc(C(F)(F)F)c1 (stereo not given) | > 100 µM | > 100 µM | > 100 µM | > 100 µM | > 100 µM | > 100 µM | > 100 µM | > 100 µM | > 100 µM | > 100 µM | > 100 µM | > 100 µM | – | > 100 µM | > 100 µM | > 100 µM | > 100 µM | > 100 µM | > 100 µM | > 100 µM |
| O=c1[nH]cnc2c1cnn2Cc1cnnn1COCCO | > 100 µM | > 100 µM | > 100 µM | > 100 µM | > 100 µM | – | > 100 µM | > 100 µM | > 100 µM | > 100 µM | > 100 µM | – | > 100 µM | > 100 µM | > 100 µM | 90.5 µM | > 100 µM | > 100 µM | > 100 µM | > 100 µM |
